Laboratory results from patent US20220072061A1, “SUBSTANCE FOR TREATMENT OR PREVENTION OF DISEASES, METHOD FOR DESIGNING THE SAME, AND METHOD FOR PREPARING THE SAME” (priority 2018, published 2022).
Structures can show the parent of a compound that is named as a salt.

Columns and labels:
patients with menoxenia = experiment: Clinical study against menoxenia; format: in vivo, human
Description: 1. Clinical data: 60 cases (in total) of outpatients and inpatients with menoxenia were enrolled, and randomly divided into a treatment group of 30 patients and a control group of 30 patients. There was no significant difference between the two groups in clinical data.
2. Diagnosis criteria: Symptoms include disorders in the menstrual cycle and menstrual period, excessive or insufficient bleeding during menstruation, and abdominal pain before and after menstruation.
3. […] Patients in the control group were orally given clomifene citrate capsules (NMPA Approval No. H31021107), 50 mg/day, started on day 5 since menstruation, for 2 consecutive months.
4. Efficacy evaluation criteria: The efficacy evaluation is based on the relevant standards in Guiding Principles for Clinical Research of New Chinese Medicines.
(§1) Total effective rate=cured rate+effective rate.

patients with depression = experiment: Clinical study against depression; format: in vivo, human
Experimental: 1. Clinical data: 60 cases (in total) of outpatients and inpatients with depression were enrolled, and randomly divided into a treatment group of 30 patients and a control group of 30 patients. There was no significant difference between the two groups in clinical data.
2. Diagnosis criteria: The diagnosis criteria for depression from The Diagnostic and Statistical Manual of Mental Disorders.
3. […] Patients in the control group were treated with fluoxetine, the initial and treatment doses both being 20 mg/day, for a course of 4 weeks.
4. Efficacy evaluation criteria: After 4 weeks of treatment, the patients were scored by a psychiatrist based on the Hamilton Depression Rating Scale HAMD-17. “Cured” means a HAMD-17 total score <7; “effective” means a HAMD-17 total score of 8-17; and “ineffective” means a HAMD-17 total score>17.
as §1

[1] = test system: patients with allergic rhinitis; experiment: Clinical application trial for treatment of allergic rhinitis; format: in vivo, human
Experimental: There was no significant difference between the two groups in clinical data and conditions. […] Diagnosis criteria: 2 or more clinical symptoms such as sneezing, clear water-like nasal discharge, nasal congestion, and nasal itching, appearing continuously or continually for 1 hour or more every day. It may be accompanied by eye symptoms such as eye itching and conjunctival hyperemia. Common signs often include pale nasal mucosa, edema, and watery nasal discharge. Positive in the allergen skin prick test. 3. […] 4. […] Total effective rate=cured rate+effective rate.

patients with urticaria = experiment: Clinical study against urticaria; format: in vivo, human
Experimental: 1. […]. There was no significant difference between the two groups in clinical data.
3. […] The patients in the control group orally took loratadine 5 mg per time, once day, for 30 days.
(§2) 4. […] Total effective rate=cured rate+markedly effective rate+effective rate.

[2] = test system: patients with ankylosing spondylitis; experiment: Clinical study in patients with ankylosing spondylitis; format: in vivo, human; conditions: number of patients (14 treatment, 13 control); after 1 month
Description: 1. […] 2. […] 3. […] 4. Efficacy evaluation criteria:

hypertensive patients = experiment: Clinical study against hypertension; conditions: human, in vivo
Experimental: 1. Clinical data: In this example, totally 46 hypertensive patients were treated and observed clinically, including 25 males and 21 females, 18-75 years old, with a course of disease of 0.5 to 30 years, who were randomly divided into a treatment group of 23 patients and a control group of 23 patients. There was no significant difference between the two groups in clinical data.
2. Diagnosis criteria: According to the Guidelines for Diagnosis of Hypertension in China (2010), hypertension can be diagnosed if the systolic pressure≥140 mmHg and/or the diastolic pressure≥90 mmHg. Grade 1 hypertension: systolic pressure 140 to 159 mmHg and/or diastolic pressure 90 to 99 mmHg; Grade 2 hypertension: systolic pressure 160 to 179 mmHg and/or diastolic pressure 100 to 109 mmHg; Grade 3 hypertension: systolic pressure≥180 mmHg and/or diastolic pressure≥110 mmHg.
3. […] Patients in the control group orally took Levamlodipine Beslate and losartan potassium tablets, 3 times a day under supervision of a physician, and the dose was maintained for 3 months or more.
as §2

[3] = number of patients of 30, allergic rhinitis
[4] = number of patients of 28, chronic urticaria

Question: With CCN(CC)CCOc1ccc(C(=C(Cl)c2ccccc2)c2ccccc2)cc1 [clomifene citrate capsules, clomifene citrate] as the molecule, how does the “Total effective rate (%)” value (patients with menoxenia; after treatment) read?
Answer: 66.67%

Question: What about the Cured (patients with menoxenia; number of patients of 30) of the same molecule?
Answer: 0

Question: What about the Effective (patients with menoxenia; number of patients of 30) of the same molecule?
Answer: 10

Question: What about the Markedly effective (patients with menoxenia; number of patients of 30) of the same molecule?
Answer: 10

Question: Which “Total effective rate (%)” value (patients with depression; cured rate+effective rate, depression, after 4 weeks) does the source give for CNCCC(Oc1ccc(C(F)(F)F)cc1)c1ccccc1 (centres unmarked) [fluoxetine] here?
Answer: 76.67%

Question: What about the Cured (patients with depression; number of patients of 30, HAMD-17 total score <7 after 4 weeks) of the same molecule?
Answer: 9

Question: What about the Ineffective (patients with depression; number of patients of 30, HAMD-17 total score >17 after 4 weeks) of the same molecule?
Answer: 7

Question: And the Effective (patients with depression; number of patients of 30, HAMD-17 total score of 8-17 after 4 weeks)?
Answer: 14

Question: For CCOC(=O)N1CCC(=C2c3ccc(Cl)cc3CCc3cccnc32)CC1 [loratadine], which recurrence ([1]; 6-month follow-up / after drug discontinuance) is on record?
Answer: allergic symptoms appeared after contact with allergens after drug discontinuance

Question: And the “drug adverse reaction or drug dependence” value ([1]; during the treatment, of 30 patients)?
Answer: 5 cases

Question: What about the Effective [1, 3] of the same molecule?
Answer: 20

Question: What about the Ineffective [1, 3] of the same molecule?
Answer: 10

Question: And the Cured ([1]; number of patients of 30, allergic rhinitis, no recurrence for 60 days)?
Answer: 0

Question: What about the “Total effective rate (%)” value (patients with urticaria; cured rate+markedly effective rate+effective rate, chronic urticaria) of the same molecule?
Answer: 53.57%

Question: What about the Cured (patients with urticaria; [4]) of the same molecule?
Answer: 0

Question: And the Ineffective (patients with urticaria; [4])?
Answer: 13

Question: What about the Effective (patients with urticaria; number of patients of 28, wheal subsided by 50% to 80%) of the same molecule?
Answer: 6

Question: What about the Markedly effective (patients with urticaria; number of patients of 28, wheal subsided by 80% or more) of the same molecule?
Answer: 9

Question: How did the Effective [2] turn out when O=C(O)c1cc(/N=N/c2ccc(S(=O)(=O)Nc3ccccn3)cc2)ccc1O [sulfasalazine enteric tablets, sulfasalazine] was run?
Answer: 5

Question: And the Ineffective [2]?
Answer: 6

Question: And the Markedly effective [2]?
Answer: 2

Question: Which adverse drug reactions (hypertensive patients) does the source give for “Levamlodipine Beslate and losartan potassium” here?
Answer: 6 cases

Question: And the drug dependence (hypertensive patients)?
Answer: 4 cases
